IC50 data for 26 compounds are collected here from ChEMBL document CHEMBL1145276, “Synthesis and biological evaluation of 6,7-disubstituted 4-aminopyrido[2,3-d]pyrimidines as adenosine kinase inhibitors” (Bioorg Med Chem Lett, 2005).

The target in experiment [1] is T1, Adenosine kinase (Homo sapiens, UniProt P55263). The experiment in a line: Inhibitory concentration against Adenosine Kinase (enzyme).
The target of experiment [2] is T1, Adenosine kinase. The experiment in a line: Inhibitory concentration against Adenosine Kinase (intact cells).

SMILES strings stand for the structures.

T1 sequence (P55263 whole entry): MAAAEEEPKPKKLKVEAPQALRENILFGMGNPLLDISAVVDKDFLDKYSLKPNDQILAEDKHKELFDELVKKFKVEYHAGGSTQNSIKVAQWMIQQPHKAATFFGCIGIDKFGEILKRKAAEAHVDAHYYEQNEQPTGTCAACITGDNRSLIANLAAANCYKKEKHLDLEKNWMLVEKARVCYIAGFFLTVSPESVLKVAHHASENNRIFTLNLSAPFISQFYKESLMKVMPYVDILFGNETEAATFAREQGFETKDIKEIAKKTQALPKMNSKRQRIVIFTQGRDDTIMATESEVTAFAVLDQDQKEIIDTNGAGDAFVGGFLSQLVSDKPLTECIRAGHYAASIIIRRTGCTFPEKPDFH

The IC50 is the concentration that gives 50% inhibition. Compound `CN(C)c1ccc(-c2nc3ncnc(N)c3cc2-c2ccccc2)cc1` displayed an IC50 against Adenosine kinase [1] of 350 nM. With `Cc1ccc(-c2cc3c(N)ncnc3nc2-c2ccsc2)cc1`, the IC50 is above 1000 nM against Adenosine kinase [2] and 47 nM at Adenosine kinase [1].

As to `CN(C)c1ccc(-c2cc3c(N)ncnc3nc2-c2ccc(N(C)C)cc2)cc1`, the IC50 against Adenosine kinase [2] was determined as 367 nM; against Adenosine kinase [1] it was 183 nM. In the case of `COc1ccc(-c2cc3c(N)ncnc3nc2-c2cccs2)cc1OC`, the values for the IC50 against Adenosine kinase [2] and at Adenosine kinase [1] were 300 nM and 38 nM, respectively. As to `CN(C)c1ccc(-c2nc3ncnc(N)c3cc2-c2cccc(Br)c2)cc1`, the IC50 against Adenosine kinase [2] is above 1000 nM; against Adenosine kinase [1] it was 70 nM.

As to `CCCCCc1cc2c(N)ncnc2nc1-c1ccc(N(C)C)cc1`, the IC50 was determined as 700 nM against Adenosine kinase [2] and 30 nM on Adenosine kinase [1]. `CN(C)c1ccc(-c2nc3ncnc(N)c3cc2CCc2ccccc2)cc1` returned an IC50 against Adenosine kinase [1] of 433 nM.

Compound `Cc1ccc(-c2cc3c(N)ncnc3nc2-c2cc3ccccc3o2)cc1` came in with an IC50 against Adenosine kinase [1] above 1000 nM. Consider `CC(C)Cc1cc2c(N)ncnc2nc1-c1ccc(N(C)C)cc1`, for which the IC50 was above 1000 nM against Adenosine kinase [2] and 200 nM against Adenosine kinase [1]. In the case of `CN(C)c1ccc(-c2nc3ncnc(N)c3cc2-c2ccc(Br)cc2)cc1`, the results for the IC50 on Adenosine kinase [2] and at Adenosine kinase [1] were above 1000 nM and 20 nM, respectively. With `Nc1ncnc2nc(-c3cccs3)c(Cc3cccc(Br)c3)cc12`, the results for the IC50 against Adenosine kinase [2] and against Adenosine kinase [1] were 650 nM and 3.8 nM, respectively. At Adenosine kinase [1], `COc1cccc(-c2cc3c(N)ncnc3nc2-c2ccc(N(C)C)cc2)c1` displayed an IC50 above 1000 nM.

With `COc1ccc(-c2cc3c(N)ncnc3nc2-c2ccc(N(C)C)cc2)cc1OC`, the IC50 stood at 350 nM against Adenosine kinase [2] and 45 nM on Adenosine kinase [1]. Consider `CN(C)c1ccc(-c2nc3ncnc(N)c3cc2CCCc2ccccc2)cc1`, for which the IC50 at Adenosine kinase [1] turned out to be 2230 nM. As for `COc1ccc(-c2cc3c(N)ncnc3nc2-c2ccc(N(C)C)cc2)cc1Br`, the IC50 on Adenosine kinase [2] amounted to 225 nM; against Adenosine kinase [1], 33 nM.

For `Cc1ccc(-c2cc3c(N)ncnc3nc2-c2ccc(/C=C/c3ccccn3)cc2)cc1`, the IC50 against Adenosine kinase [1] is 115 nM. In other words, the sub-micromolar range. Consider `CN(C)c1ccc(-c2cc3c(N)ncnc3nc2-c2ccncc2)cc1`, for which the 50% inhibitory concentration (IC50) is 4170 nM against Adenosine kinase [2] and 467 nM against Adenosine kinase [1]. On the same counts, the results for `CCCCc1cc2c(N)ncnc2nc1-c1cccs1` are 767 nM and 11 nM.

As to `Cc1ccc(-c2cc3c(N)ncnc3nc2-c2cccs2)cc1`, the half-inhibitory concentration (IC50) against Adenosine kinase [2] was 800 nM; at Adenosine kinase [1] it was 9 nM. As for `COc1ccc(-c2cc3c(N)ncnc3nc2-c2ccc(N(C)C)cc2)cc1`, at Adenosine kinase [1], 92 nM corresponded to half-maximal inhibition (IC50). Consider `CN(C)c1ccc(-c2ccc3c(N)ncnc3n2)cc1`, for which the results for the IC50 on Adenosine kinase [2] and on Adenosine kinase [1] were above 10000 nM and 773 nM, respectively. Regarding `Nc1ncnc2nc(-c3nccs3)c(Cc3cccc(Br)c3)cc12`, the IC50 on Adenosine kinase [1] is 900 nM. Turning to `Cc1ccc(-c2cc3c(N)ncnc3nc2-c2ccc(-c3cncnc3)cc2)cc1`, the IC50 against Adenosine kinase [1] is 180 nM. Take `COc1ccc(-c2cc3c(N)ncnc3nc2-c2cccs2)cc1Br`: the IC50 at Adenosine kinase [2] worked out at 375 nM; on Adenosine kinase [1] it was 8 nM. In the case of `CN(C)c1ccc(-c2nc3ncnc(N)c3cc2Cc2ccccc2)cc1`, the IC50 on Adenosine kinase [2] was 650 nM; on Adenosine kinase [1], 114 nM. The compound `CN(C)c1ccc(-c2cnc3c(N)ncnc3n2)cc1` displayed an IC50 on Adenosine kinase [1] of 440 nM.
